Experimental data: patent US20240368096A1 (Enanta Pharmaceuticals, Inc., priority 2022, published 2024)

What follows are molecules tested on HBV (assay: HBV infection in HepG2-NTCP cells (HBeAg AlphaLISA in supernatants)). Conditions: Hepatitis B virus, 192 h; HBV infection of HepG2-NTCP cells; HBeAg in supernatants at day 8 post infection; read-out: Cellular EC50.
Assay type: cell-based
Method in brief: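 HepG2-NTCP A3 cells were pre-incubated 2 h with 3-fold serially diluted compounds, then infected with HBV at 2000 GE/cell with 4% PEG (0.5% DMSO final). After washing on day 1, cells stayed in 2.5% DMSO medium; supernatant HBeAg measured by AlphaLISA on day 8, EC50 versus DMSO controls.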

Going from `COc1cc2c(cc1-c1cccc(C(=O)O)c1)S(=O)(=O)N(C)C(C)CN2c1ccccc1` (stereo not drawn) [Example 15, 3-(7-methoxy-2,3-dimethyl-1,1-dioxido-5-phenyl-2,3,4,5-tetrahydrobenzo[f][1,2,5]thiadiazepin-8-yl)benzoic acid] to `CC(C)C[C@@H]1CN(c2ccccc2)c2cc(OC(C)(C)C)c(-c3ccc(Cl)c(C(=O)O)c3)cc2S(=O)(=O)N1C` [Example 440], the EC50 falls from greater than 1000 nM to less than 100 nM. The second is the more potent here.

`CSc1cc2c(cc1-c1ccc(F)c(C(=O)O)c1)S(=O)(=O)N1CC(C)(C)CC1CN2c1ccccc1` (stereo not drawn) [Example 20] and `CN1[C@H](C2CC(F)(F)C2)CN(c2ccccc2)c2cc(Cl)c(-c3ccc(F)c(C(=O)O)c3)cc2S1(=O)=O` [Example 30] fall in the same range of EC50: 100 to 1000 nM for the first, 100 to 1000 nM for the second.

First: CO[C@@H]1CCN(c2cc3c(cc2-c2ccc(F)c(C(=O)O)c2)S(=O)(=O)N(C)[C@H](C2CCCCC2)CN3c2ccccc2)C1 [Example 531]
Second: CC(=O)N1CCN(c2cc3c(cc2-c2ccc(F)c(C(=O)O)c2)S(=O)(=O)N(C)[C@H](C2CCCCC2)CN3c2ccccc2)CC1 [Example 535]
The EC50 of the first is lower: less than 100 nM for the first, 100 to 1000 nM for the second.

Going from `CC(C)C[C@@H]1CN(c2ccccc2)c2cc(OCC(F)(F)F)c(-c3ccc(F)c(C(=O)O)c3)cc2S(=O)(=O)N1C` [Example 453] to `CN1C(CC(F)(F)F)CN(c2ccccc2)c2cc(Cl)c(-c3ccc(F)c(C(=O)O)c3)cc2S1(=O)=O` (stereo not drawn) [Example 69], the EC50 rises from less than 100 nM to greater than 1000 nM. The first is the more potent here.

`Cc1ncc(N2C[C@@H](C3CCCCC3)N(C)S(=O)(=O)c3cc(-c4ccc(F)c(C(=O)O)c4)c(Cl)cc32)cn1` [Example 287] and `CCCCOc1ccc(N2C[C@@H](C3CCCCC3)N(C)S(=O)(=O)c3cc(-c4ccc(F)c(C(=O)O)c4)c(Cl)cc32)cc1` [Example 311] fall in the same range of EC50: 100 to 1000 nM for the first, 100 to 1000 nM for the second.

Compared with `CN1C(C23CC(C(F)(F)F)(C2)C3)CN(c2ccccc2)c2cc(Cl)c(-c3ccc(F)c(C(=O)O)c3)cc2S1(=O)=O` (stereo not drawn) [Example 87], `CN1[C@H](CN2CCCCC2)CN(c2ccccc2)c2cc(Cl)c(-c3ccc(F)c(C(=O)O)c3)cc2S1(=O)=O` [Example 108, (R)-5-(7-chloro-2-methyl-1,1-dioxido-5-phenyl-3-(piperidin-1-ylmethyl)-2,3,4,5-tetrahydrobenzo[f][1,2,5]thiadiazepin-8-yl)-2-fluorobenzoic acid] is higher in EC50: 100 to 1000 nM for the first, greater than 1000 nM for the second. The first is the more potent here.

First: CN1[C@H](C2CCCCC2)CN(c2ccccc2)c2cc(O[C@H]3C[C@H](C#N)C3)c(-c3ccc(F)c(C(=O)O)c3)cc2S1(=O)=O [Example 384]
Second: CN1[C@H](C2CCCCC2)CN(c2ccccc2)c2cc(Oc3cc(F)ccc3F)c(-c3ccc(F)c(C(=O)O)c3)cc2S1(=O)=O [Example 403]
The EC50 of the first is higher: 100 to 1000 nM for the first, less than 100 nM for the second.

`COC(C)(C)CCOC(=O)Nc1cc(-c2cc3c(cc2Cl)N(c2ccccc2)C[C@@H](C2CCCCC2)N(C)S3(=O)=O)sc1C(=O)O` [Example 261] and `CN1[C@H](C2CCCCC2)CN(c2ccccc2)c2cc(Cl)c(-c3ccc(OC(F)(F)F)c(C(=O)O)c3)cc2S1(=O)=O` [Example 174] fall in the same range of EC50: 100 to 1000 nM for the first, 100 to 1000 nM for the second.

First: CCCCC[C@@H]1CN(c2ccccc2)c2cc(Cl)c(-c3ccc(F)c(C(=O)O)c3)cc2S(=O)(=O)N1C [Example 70]
Second: CC(C)C[C@@H]1CN(c2ccccc2)c2cc(Cl)c(-c3ccc(O)c(C(=O)O)c3)cc2S(=O)(=O)N1C [Example 160, (R)-5-(7-chloro-3-isobutyl-2-methyl-1,1-dioxido-5-phenyl-2,3,4,5-tetrahydrobenzo[f][1,2,5]thiadiazepin-8-yl)-2-hydroxybenzoic acid]
The EC50 of the first is higher: greater than 1000 nM for the first, less than 100 nM for the second. The second is the more potent here.

`CC(C)C[C@@H]1CN(c2ccccc2)c2cc(Cl)c(-c3ccc(Cl)c(C(N)=O)c3)cc2S(=O)(=O)N1C` [Example 166] and `CC(C)C[C@@H]1CN(c2ccccc2)c2cc(Cl)c(-c3cccc(C4(C(=O)O)CC4)c3)cc2S(=O)(=O)N1C` [Example 162] cannot be ordered by EC50: greater than 1000 nM for the first, greater than 1000 nM for the second.

`CC(C)C[C@@H]1CN(c2ccccc2)c2cc(Cl)c(-c3cc(C(=O)O)cc(C(F)(F)F)c3)cc2S(=O)(=O)N1C` [Example 164] gave an EC50 of 100 to 1000 nM.
